Values joined by “and” are separate entries in the source; they are usually repeats but may differ in a detail not shown here. Equal entries are not always repeated.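 Each compound was tested at five concentrations against cells in 96-well plates for 48 hours. The concentration for 50% growth inhibition is given as GI50. At the TGI there is no net growth.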
Tests used:
Experiment in all cases: DTP human tumour cell line panel, 48 h
UACC-62 melanoma = test system: UACC-62 melanoma
SK-MEL-5 melanoma = test system: SK-MEL-5 melanoma
HCC-2998 colon = test system: HCC-2998 colon
RPMI-8226 leukemia = test system: RPMI-8226 leukemia
HOP-92 NSCLC = test system: HOP-92 NSCLC
NCI-H23 lung = test system: NCI-H23 lung
SF-295 CNS = test system: SF-295 CNS
SW-620 colon = test system: SW-620 colon
NCI-H460 lung = test system: NCI-H460 lung
MOLT-4 leukemia = test system: MOLT-4 leukemia

SMILES | GI50 (UACC-62 melanoma) [µM] | TGI (UACC-62 melanoma) [µM] | GI50 (SK-MEL-5 melanoma) [µM] | TGI (SK-MEL-5 melanoma) | GI50 (HCC-2998 colon) [µM] | TGI (HCC-2998 colon) | GI50 (RPMI-8226 leukemia) [µM] | TGI (RPMI-8226 leukemia) [µM] | GI50 (HOP-92 NSCLC) [µM] | TGI (HOP-92 NSCLC) | GI50 (NCI-H23 lung) [µM] | TGI (NCI-H23 lung) [µM] | GI50 (SF-295 CNS) [µM] | TGI (SF-295 CNS) | GI50 (SW-620 colon) [µM] | TGI (SW-620 colon) | GI50 (NCI-H460 lung) [µM] | TGI (NCI-H460 lung) [µM] | TGI (MOLT-4 leukemia) [µM] | GI50 (MOLT-4 leukemia) [µM]
O=C1c2cccc3c(N4CCOCC4)ccc(c23)C(=O)N1CCN1CCN(CCCCCN2CCN(CCN3C(=O)c4cccc5c(N6CCOCC6)ccc(c45)C3=O)CC2)CC1 | 77.6 | > 100 | 57.2 | > 100 µM | 17.5 | 65.5 µM | 23.2 | > 100 | 76.6 | > 100 µM | 99.8 | > 100 | 72 | > 100 µM | 70.8 | > 100 µM | > 100 | > 100 | – | –
CC(C)c1ccc(Cc2ccc(C(C)C)c(NC(=O)C(=O)Cc3cnc4ccccc4n3)c2C(C)C)c(C(C)C)c1NC(=O)C(=O)Cc1cnc2ccccc2n1 | – | > 100 | – | > 100 µM | – | > 100 µM | – | > 100 | – | 91.8 µM | – | – | – | > 100 µM | – | > 100 µM | – | > 100 | > 100 | –
O=C(O)c1ccccc1C(=O)c1ccco1 | – | > 100 | – | > 100 µM | – | > 100 µM | – | – | – | > 100 µM | – | > 100 | – | > 100 µM | – | > 100 µM | – | > 100 | > 100 | –
C=C1C(=O)O[C@@H]2C[C@@]3(C)[C@H](O)CCC(=C)[C@@H]3C[C@H]12 | – | 19 | – | 16.8 µM | – | 23.8 µM | – | 13.4 | – | 18.2 µM | – | 25.5 | – | 27.2 µM | – | 11.7 µM | – | 19.7 | – | –
COc1ccc([C@@]23Oc4cc(OC)cc(OC)c4[C@]2(O)[C@H](O)[C@H](C(=O)N(C)C)[C@H]3c2ccccc2)cc1 | 0.0243 | – | 0.0227 | 0.0144 µM and 0.139 µM | – | 0.0615 µM and 0.224 µM | 0.0164 | – | 0.0304 | 0.0741 µM and 0.4 µM | 0.0152 | – | 0.0124 | 0.0433 µM and 0.0867 µM | – | 1.02 µM and 0.26 µM and 0.244 µM | – | – | – | –
O=C(Nc1nc2ccc(S(=O)(=O)Nc3ccc(C4(C(F)(F)F)CC4)cc3)cc2[nH]1)c1cnccn1 | 1.51 | 15.4 | 0.693 | 4.3 µM | 3.61 | 17.7 µM | 1.16 | 5.39 | 1.04 | 2.4 µM | 2.2 | 15.8 | 0.506 | 10.3 µM | 1.71 | 15.3 µM | 1.07 | 12.2 | – | –
Nc1nc(Cl)c2ncn(Cc3ccc(C45CC6CC(CC(C6)C4)C5)c(OCc4cc(F)c(F)cc4F)c3)c2n1 | 1.64 | 12.6 | 0.392 | 2.24 µM | 2.48 | 5.58 µM | – | – | 2.02 | 6.03 µM | – | – | 3.44 | 17.1 µM | 2.14 | 20.5 µM | 2.39 | 5.89 | 2.71 | 0.837
O=C1OC(=O)c2c1nc1ccccc1c2-c1ccccc1 | – | > 100 | – | > 100 µM | – | > 100 µM | – | > 100 | – | > 100 µM | – | – | – | > 100 µM | – | > 100 µM | – | > 100 | > 100 | –
COc1ccc(N(CC(=O)O)N=O)cc1 | – | > 100 | – | > 100 µM | – | – | – | > 100 | – | > 100 µM | – | > 100 | – | > 100 µM | – | > 100 µM | – | > 100 | > 100 | –
C/C(=C/CCC(C)[C@@H]1CC[C@]2(C)C3=C(CC[C@@]12C)[C@@]1(C)CCC(=O)C(C)(C)[C@@H]1CC3)C(=O)O (stereo partly specified) | 0.469 | 1.76 | 1.07 | 2.44 µM | 1.1 | 2.44 µM | – | – | 0.783 | 2.09 µM | 0.885 | 2.37 | 0.506 | 2.02 µM | 1.39 | 3.41 µM | 1.28 | 4.02 | 3.24 | 1.46
N#CC(C(=O)Nc1ccccc1)C1=C(Cl)C(=O)c2ccccc2C1=O (stereo unspecified) | – | 33.3 | – | 30.2 µM | – | 45.9 µM | – | – | – | 27.9 µM | – | 36.5 | – | 36.5 µM | – | 50 µM | – | > 100 | – | –
CCOC1c2nc3ccccc3nc2-c2ccccc2N1C(C)=O (stereo unspecified) | – | > 100 | – | – | – | > 100 µM | – | > 100 | – | > 100 µM | – | > 100 | – | > 100 µM | – | > 100 µM | – | > 100 | > 100 | –
CS(=O)(=O)OCCN1CCN(C(=O)c2ccc(Cl)c3c(Nc4ccc(S(=O)(=O)N=C(N)N)cc4)c4ccccc4nc23)CC1 | – | > 100 | – | > 100 µM | – | > 100 µM | – | > 100 | – | > 100 µM | – | > 100 | – | > 100 µM | – | – | – | > 100 | > 100 | –
O=[N+]([O-])/C=C/c1ccc2ccccc2c1 | – | 32.8 | – | 13.3 µM | – | 0.678 µM | – | > 100 | – | 21.1 µM | – | > 23.5 | – | 19.4 µM | – | 3.99 µM | – | > 23.5 | – | –

Reference: PubChem BioAssay (NCI)
